According to ChEMBL document CHEMBL1154622, “Structure-guided design of potent and selective pyrimidylpyrrole inhibitors of extracellular signal-regulated kinase (ERK) using conformational control” (J Med Chem, 2009):

Columns and labels:
[1] = biological target: Ribosomal protein S6 kinase alpha-1 (Homo sapiens) (UniProt Q15418); assay: Inhibition of RSK1 at 1 uM
[2] = biological target: Ribosomal protein S6 kinase alpha-3 (Homo sapiens) (UniProt P51812); assay: Inhibition of RSK2 at 1 uM
[3] = biological target: Serine/threonine-protein kinase Sgk1 (Homo sapiens) (UniProt O00141); assay: Inhibition of SGK1 at 1 uM
[4] = biological target: Angiopoietin-1 receptor (Homo sapiens) (UniProt Q02763); assay: Inhibition of TIE2 at 1 uM
[5] = biological target: Testis-specific serine/threonine-protein kinase 2 (Homo sapiens) (UniProt Q96PF2); assay: Inhibition of TSSK2 at 1 uM
[6] = biological target: Mitogen-activated protein kinase kinase kinase 7 (Homo sapiens, UniProt O43318); assay: Inhibition of TAK1
[7] = Inhibition of PKA
[8] = biological target: Tyrosine-protein kinase JAK3 (Homo sapiens, UniProt P52333); assay: Inhibition of JAK3
[9] = biological target: Hepatocyte growth factor receptor (Homo sapiens, UniProt P08581); assay: Inhibition of MET
[10] = biological target: Vascular endothelial growth factor receptor 2 (Homo sapiens, UniProt P35968); assay: Inhibition of KDR
[11] = biological target: Dual specificity mitogen-activated protein kinase kinase 1 (Homo sapiens, UniProt Q02750); assay: Inhibition of MEK1
[12] = biological target: Mitogen-activated protein kinase kinase kinase 3 (Homo sapiens, UniProt Q99759); assay: Inhibition of MEKK3
[13] = biological target: Serine/threonine-protein kinase PLK1 (Homo sapiens, UniProt P53350); assay: Inhibition of PLK1
[14] = biological target: Tyrosine-protein kinase ZAP-70 (Homo sapiens, UniProt P43403); assay: Inhibition of ZAP70
[15] = biological target: Mitogen-activated protein kinase kinase kinase 14 (Homo sapiens, UniProt Q99558); assay: Inhibition of NIK
[16] = biological target: Focal adhesion kinase 1 (Homo sapiens, UniProt Q05397); assay: Inhibition of FAK
[17] = biological target: RAC-gamma serine/threonine-protein kinase (Homo sapiens, UniProt Q9Y243); assay: Inhibition of AKT3 at 1 uM
[18] = biological target: Serine/threonine-protein kinase BRSK1 (Homo sapiens) (UniProt Q8TDC3); assay: Inhibition of BRSK1 at 1 uM
[19] = biological target: Cyclin-dependent kinase 5 (Homo sapiens) (UniProt Q00535); assay: Inhibition of CDK5 at 1 uM
[20] = Inhibition of CK2 at 2 uM
[21] = biological target: Tyrosine-protein kinase CSK (Homo sapiens) (UniProt P41240); assay: Inhibition of CSK at 1 uM
[22] = biological target: Ephrin type-B receptor 2 (Homo sapiens) (UniProt P29323); assay: Inhibition of EPH-B2 at 1 uM
[23] = biological target: Fibroblast growth factor receptor 2 (Homo sapiens) (UniProt P21802); assay: Inhibition of FGFR2 at 1 uM
[24] = biological target: Fibroblast growth factor receptor 3 (Homo sapiens) (UniProt P22607); assay: Inhibition of FGFR3 at 1 uM
[25] = biological target: Insulin receptor-related protein (Homo sapiens) (UniProt P14616); assay: Inhibition of IRR at 1 uM
[26] = biological target: Mitogen-activated protein kinase 8 (Homo sapiens) (UniProt P45983); assay: Inhibition of JNK1 at 2 uM
[27] = biological target: MAP kinase-activated protein kinase 2 (Homo sapiens) (UniProt P49137); assay: Inhibition of MAPKAPK-2 at 1 uM
[28] = biological target: Dual specificity mitogen-activated protein kinase kinase 4 (Homo sapiens) (UniProt P45985); assay: Inhibition of MKK4 at 2 uM
[29] = biological target: Dual specificity mitogen-activated protein kinase kinase 6 (Homo sapiens) (UniProt P52564); assay: Inhibition of MKK6 at 2 uM
[30] = biological target: Ribosomal protein S6 kinase alpha-4 (Homo sapiens) (UniProt O75676); assay: Inhibition of MSK2 at 1 uM
[31] = biological target: Mitogen-activated protein kinase 11 (Homo sapiens) (UniProt Q15759); assay: Inhibition of P38beta at 2 uM
[32] = biological target: Platelet-derived growth factor receptor alpha (Homo sapiens) (UniProt P16234); assay: Inhibition of PDGFRalpha at 2 uM
[33] = biological target: Serine/threonine-protein kinase pim-2 (Homo sapiens) (UniProt Q9P1W9); assay: Inhibition of PIM2 at 1 uM
[34] = biological target: Protein kinase C beta type (Homo sapiens) (UniProt P05771); assay: Inhibition of PKCbeta1 at 1 uM
[35] = biological target: Protein kinase C beta type (Homo sapiens) (UniProt P05771); assay: Inhibition of PKCbeta2 at 2 uM
[36] = biological target: Serine/threonine-protein kinase N2 (Homo sapiens) (UniProt Q16513); assay: Inhibition of PRK2 at 2 uM
[37] = biological target: RAF proto-oncogene serine/threonine-protein kinase (Homo sapiens) (UniProt P04049); assay: Inhibition of cRAF at 2 uM
[38] = biological target: Rho-associated protein kinase 2 (Homo sapiens) (UniProt O75116); assay: Inhibition of ROCK 2 at 2 uM
[39] = biological target: Proto-oncogene tyrosine-protein kinase ROS (Homo sapiens) (UniProt P08922); assay: Inhibition of ROS at 1 uM
[40] = Inhibition of GSK3
[41] = biological target: T1, Aurora kinase A (Homo sapiens, UniProt O14965); assay: Inhibition of AURA
T1 sequence (O14965 whole entry): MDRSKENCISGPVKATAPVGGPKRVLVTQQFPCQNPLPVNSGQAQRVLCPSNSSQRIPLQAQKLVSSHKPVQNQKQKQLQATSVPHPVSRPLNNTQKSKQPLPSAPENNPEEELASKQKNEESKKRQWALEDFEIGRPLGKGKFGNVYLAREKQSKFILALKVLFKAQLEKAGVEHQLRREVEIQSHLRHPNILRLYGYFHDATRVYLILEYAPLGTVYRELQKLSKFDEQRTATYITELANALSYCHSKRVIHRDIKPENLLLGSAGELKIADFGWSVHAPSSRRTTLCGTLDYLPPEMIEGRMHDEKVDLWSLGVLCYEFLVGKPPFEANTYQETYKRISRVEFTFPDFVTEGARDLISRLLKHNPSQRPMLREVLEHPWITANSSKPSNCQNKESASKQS

[42] = Volume of distribution at steady state in rat at 3 mg/kg, iv; format: ADME, organism-based; design: dose 3 mg/kg, route intravenous; details: in vivo, read-out: Vdss
[43] = Plasma concentration in rat at 3 mg/kg, iv after 8 hrs; format: ADME, organism-based; design: dose 3 mg/kg, route intravenous
[44] = Plasma concentration in rat at 10 mg/kg, po after 4 hrs; format: ADME, organism-based; design: dose 10 mg/kg, route oral
[45] = Plasma concentration in rat at 10 mg/kg, po after 8 hrs; format: ADME, organism-based; design: dose 10 mg/kg, route oral
[46] = Clearance in mouse at 5 mg/kg, iv; format: ADME, organism-based; design: dose 5 mg/kg, route intravenous; details: in vivo
[47] = Oral bioavailability in mouse at 33 mg/kg; format: ADME, organism-based; details: in vivo
[48] = biological target: Cyclin-dependent kinase 2 (Homo sapiens, UniProt P24941)

Protein kinase C beta type (Homo sapiens), sequence (P05771 2-671 limits assumed): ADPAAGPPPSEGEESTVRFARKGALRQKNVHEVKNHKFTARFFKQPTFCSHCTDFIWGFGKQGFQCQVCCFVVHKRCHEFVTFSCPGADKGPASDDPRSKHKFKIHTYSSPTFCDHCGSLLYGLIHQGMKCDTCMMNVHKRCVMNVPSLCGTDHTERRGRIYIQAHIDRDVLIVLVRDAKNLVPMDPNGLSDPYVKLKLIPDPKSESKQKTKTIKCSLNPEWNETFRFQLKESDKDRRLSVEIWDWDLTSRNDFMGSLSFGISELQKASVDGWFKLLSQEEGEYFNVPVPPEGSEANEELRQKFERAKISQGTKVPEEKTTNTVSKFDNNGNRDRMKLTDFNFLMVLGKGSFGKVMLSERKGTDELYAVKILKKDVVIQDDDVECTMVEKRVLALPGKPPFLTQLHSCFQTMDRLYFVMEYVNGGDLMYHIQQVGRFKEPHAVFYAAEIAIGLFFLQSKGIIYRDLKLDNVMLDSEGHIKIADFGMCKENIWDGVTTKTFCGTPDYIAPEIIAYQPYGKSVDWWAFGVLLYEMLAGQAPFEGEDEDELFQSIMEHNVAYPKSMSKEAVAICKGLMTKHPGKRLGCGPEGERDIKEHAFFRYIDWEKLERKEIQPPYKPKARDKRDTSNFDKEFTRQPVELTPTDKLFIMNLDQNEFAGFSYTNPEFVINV
Proto-oncogene tyrosine-protein kinase ROS (Homo sapiens), sequence (P08922 whole entry): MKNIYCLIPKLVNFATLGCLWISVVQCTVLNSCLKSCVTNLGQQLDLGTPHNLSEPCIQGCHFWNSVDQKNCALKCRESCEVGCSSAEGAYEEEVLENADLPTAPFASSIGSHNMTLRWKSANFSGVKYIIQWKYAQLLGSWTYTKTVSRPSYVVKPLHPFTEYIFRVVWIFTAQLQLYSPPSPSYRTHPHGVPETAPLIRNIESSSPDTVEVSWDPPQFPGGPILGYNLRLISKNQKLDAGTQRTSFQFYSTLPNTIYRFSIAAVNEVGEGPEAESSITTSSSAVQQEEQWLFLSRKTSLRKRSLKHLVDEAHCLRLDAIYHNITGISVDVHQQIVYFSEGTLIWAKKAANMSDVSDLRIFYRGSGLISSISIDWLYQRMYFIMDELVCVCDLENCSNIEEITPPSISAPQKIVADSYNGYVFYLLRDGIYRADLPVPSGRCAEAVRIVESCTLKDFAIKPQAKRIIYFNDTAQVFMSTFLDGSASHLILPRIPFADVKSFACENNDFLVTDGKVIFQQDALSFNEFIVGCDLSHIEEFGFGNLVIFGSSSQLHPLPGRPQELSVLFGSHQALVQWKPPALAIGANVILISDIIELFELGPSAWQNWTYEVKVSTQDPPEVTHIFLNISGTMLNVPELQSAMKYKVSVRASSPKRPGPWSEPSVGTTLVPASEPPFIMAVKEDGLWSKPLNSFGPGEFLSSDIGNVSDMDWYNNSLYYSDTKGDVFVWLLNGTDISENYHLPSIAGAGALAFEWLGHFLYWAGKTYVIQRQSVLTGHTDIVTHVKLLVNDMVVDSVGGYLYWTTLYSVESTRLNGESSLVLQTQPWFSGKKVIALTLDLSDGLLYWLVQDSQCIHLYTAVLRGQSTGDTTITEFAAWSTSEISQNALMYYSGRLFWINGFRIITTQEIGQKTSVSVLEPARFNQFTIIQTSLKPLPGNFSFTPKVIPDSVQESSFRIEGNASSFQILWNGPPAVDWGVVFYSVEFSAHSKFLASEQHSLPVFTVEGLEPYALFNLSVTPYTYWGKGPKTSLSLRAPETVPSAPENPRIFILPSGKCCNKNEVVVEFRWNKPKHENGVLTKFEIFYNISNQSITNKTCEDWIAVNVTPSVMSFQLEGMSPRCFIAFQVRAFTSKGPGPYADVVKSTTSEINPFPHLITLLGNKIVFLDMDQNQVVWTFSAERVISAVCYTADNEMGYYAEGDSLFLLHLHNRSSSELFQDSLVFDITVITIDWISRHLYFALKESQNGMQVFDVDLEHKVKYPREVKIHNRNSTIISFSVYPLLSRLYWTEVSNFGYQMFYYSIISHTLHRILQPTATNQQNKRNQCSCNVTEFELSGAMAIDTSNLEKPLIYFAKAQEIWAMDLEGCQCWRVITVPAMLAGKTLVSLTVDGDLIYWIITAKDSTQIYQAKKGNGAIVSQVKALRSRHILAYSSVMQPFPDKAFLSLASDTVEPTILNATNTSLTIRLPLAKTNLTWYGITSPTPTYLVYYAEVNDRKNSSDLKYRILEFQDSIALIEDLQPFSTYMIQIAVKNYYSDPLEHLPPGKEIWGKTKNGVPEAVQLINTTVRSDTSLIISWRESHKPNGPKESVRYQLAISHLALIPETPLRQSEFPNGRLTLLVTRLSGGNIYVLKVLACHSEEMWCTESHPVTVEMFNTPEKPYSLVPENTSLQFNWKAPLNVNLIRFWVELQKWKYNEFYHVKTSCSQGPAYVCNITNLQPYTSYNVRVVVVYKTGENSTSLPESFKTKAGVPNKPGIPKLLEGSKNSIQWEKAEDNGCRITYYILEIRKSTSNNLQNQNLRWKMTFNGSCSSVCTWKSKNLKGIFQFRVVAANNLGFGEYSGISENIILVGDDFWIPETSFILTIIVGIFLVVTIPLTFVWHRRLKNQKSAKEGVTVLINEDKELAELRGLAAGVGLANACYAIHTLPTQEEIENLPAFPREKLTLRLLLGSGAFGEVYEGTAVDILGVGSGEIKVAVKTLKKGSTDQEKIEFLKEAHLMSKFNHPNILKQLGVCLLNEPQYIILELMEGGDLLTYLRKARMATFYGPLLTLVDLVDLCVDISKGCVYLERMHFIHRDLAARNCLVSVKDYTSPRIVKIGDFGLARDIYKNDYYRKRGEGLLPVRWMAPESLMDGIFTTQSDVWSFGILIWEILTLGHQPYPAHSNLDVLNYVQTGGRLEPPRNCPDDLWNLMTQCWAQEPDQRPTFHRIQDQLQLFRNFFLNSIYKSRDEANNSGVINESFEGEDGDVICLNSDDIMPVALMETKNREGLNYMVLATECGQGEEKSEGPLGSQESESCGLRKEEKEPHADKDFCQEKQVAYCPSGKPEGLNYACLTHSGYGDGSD
Fibroblast growth factor receptor 3 (Homo sapiens), sequence (P22607 23-806 limits assumed): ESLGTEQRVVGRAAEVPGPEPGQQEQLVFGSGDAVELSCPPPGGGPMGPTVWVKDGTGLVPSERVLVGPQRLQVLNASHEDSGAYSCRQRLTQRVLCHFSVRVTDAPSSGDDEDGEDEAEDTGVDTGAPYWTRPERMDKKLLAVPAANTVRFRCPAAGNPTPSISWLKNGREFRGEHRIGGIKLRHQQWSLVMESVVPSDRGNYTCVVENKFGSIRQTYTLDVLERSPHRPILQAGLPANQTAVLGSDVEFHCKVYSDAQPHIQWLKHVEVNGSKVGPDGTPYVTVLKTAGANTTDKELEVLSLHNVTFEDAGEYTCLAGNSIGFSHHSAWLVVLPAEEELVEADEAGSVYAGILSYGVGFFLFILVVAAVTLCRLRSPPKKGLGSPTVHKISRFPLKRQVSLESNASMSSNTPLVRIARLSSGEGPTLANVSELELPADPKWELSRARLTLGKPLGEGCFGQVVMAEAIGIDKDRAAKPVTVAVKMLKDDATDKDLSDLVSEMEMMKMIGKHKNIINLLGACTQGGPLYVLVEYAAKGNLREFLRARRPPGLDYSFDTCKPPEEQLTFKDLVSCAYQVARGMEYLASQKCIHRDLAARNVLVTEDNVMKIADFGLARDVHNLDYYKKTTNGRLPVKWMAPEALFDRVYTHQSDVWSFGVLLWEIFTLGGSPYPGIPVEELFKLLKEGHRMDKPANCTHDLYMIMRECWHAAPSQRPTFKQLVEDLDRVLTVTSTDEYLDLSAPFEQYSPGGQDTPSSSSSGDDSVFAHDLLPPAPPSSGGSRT
Serine/threonine-protein kinase pim-2 (Homo sapiens), sequence (Q9P1W9 whole entry, looked up): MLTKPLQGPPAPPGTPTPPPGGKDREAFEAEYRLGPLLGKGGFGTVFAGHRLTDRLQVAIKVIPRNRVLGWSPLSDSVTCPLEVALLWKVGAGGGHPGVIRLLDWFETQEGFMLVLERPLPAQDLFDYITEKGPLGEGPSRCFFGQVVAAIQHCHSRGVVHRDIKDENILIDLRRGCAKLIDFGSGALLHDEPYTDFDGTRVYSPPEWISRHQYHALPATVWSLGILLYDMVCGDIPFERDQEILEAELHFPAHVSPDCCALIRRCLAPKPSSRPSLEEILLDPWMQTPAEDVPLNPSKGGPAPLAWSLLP
Dual specificity mitogen-activated protein kinase kinase 1, sequence (Q02750 whole entry): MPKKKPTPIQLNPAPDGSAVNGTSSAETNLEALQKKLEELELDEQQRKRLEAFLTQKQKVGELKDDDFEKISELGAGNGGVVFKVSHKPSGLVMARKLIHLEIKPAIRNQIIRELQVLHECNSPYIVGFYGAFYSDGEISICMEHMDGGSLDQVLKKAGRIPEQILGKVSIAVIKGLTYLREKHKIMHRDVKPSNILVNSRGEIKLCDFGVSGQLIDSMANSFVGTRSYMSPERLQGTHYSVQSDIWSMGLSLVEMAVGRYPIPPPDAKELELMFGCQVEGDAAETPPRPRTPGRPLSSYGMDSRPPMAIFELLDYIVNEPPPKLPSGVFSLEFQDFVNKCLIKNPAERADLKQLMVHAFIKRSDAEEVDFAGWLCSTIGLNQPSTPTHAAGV
Tyrosine-protein kinase CSK (Homo sapiens), sequence (P41240 2-450 limits assumed): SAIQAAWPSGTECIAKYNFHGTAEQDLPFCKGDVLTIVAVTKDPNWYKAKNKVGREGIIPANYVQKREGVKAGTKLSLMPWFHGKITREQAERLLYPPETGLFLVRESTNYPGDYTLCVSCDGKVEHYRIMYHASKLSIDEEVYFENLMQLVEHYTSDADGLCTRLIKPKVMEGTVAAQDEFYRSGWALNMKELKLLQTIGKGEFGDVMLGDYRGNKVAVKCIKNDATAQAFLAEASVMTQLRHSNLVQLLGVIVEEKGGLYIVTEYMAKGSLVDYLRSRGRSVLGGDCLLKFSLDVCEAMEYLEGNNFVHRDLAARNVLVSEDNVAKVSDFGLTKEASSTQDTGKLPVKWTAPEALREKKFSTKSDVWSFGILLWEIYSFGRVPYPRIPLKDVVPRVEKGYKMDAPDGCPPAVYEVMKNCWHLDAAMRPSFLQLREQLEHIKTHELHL

Which inhibition [1] does the source give for `Cc1cnc(Nc2ccc(F)cc2Cl)nc1-c1c[nH]c(C(=O)N[C@H](CO)c2cccc(Cl)c2)c1` here?
The inhibition was 4%.

What about the inhibition [2] of the same molecule?
Its inhibition is 6%.

What about the inhibition [3] of the same molecule?
The inhibition was 15%.

And the inhibition [4]?
The inhibition was 0%.

What about the inhibition [5] of the same molecule?
Its inhibition is 3%.

And the Ki [6]?
The Ki was 3 µM.

And the Ki [7]?
Its Ki is > 4 µM.

And the Ki [8]?
The Ki was > 4 µM.

And the Ki [9]?
Its Ki is > 4 µM.

And the Ki [10]?
The Ki was > 4 µM.

What about the Ki [11] of the same molecule?
Its Ki is > 4 µM.

What about the Ki [12] of the same molecule?
Its Ki is > 4 µM.

What about the Ki [13] of the same molecule?
The Ki was > 4 µM.

And the Ki [14]?
Its Ki is > 4 µM.

What about the Ki [15] of the same molecule?
The Ki was > 5 µM.

And the Ki [16]?
The Ki was > 10 µM.

And the inhibition [17]?
The inhibition was 0%.

What about the inhibition [18] of the same molecule?
Its inhibition is 0%.

And the inhibition [19]?
Its inhibition is 24%.

And the inhibition [20]?
The inhibition was 0%.

And the inhibition [21]?
Its inhibition is 3%.

What about the inhibition [22] of the same molecule?
The inhibition was 0%.

What about the inhibition [23] of the same molecule?
The inhibition was 12%.

What about the inhibition [24] of the same molecule?
Its inhibition is 8%.

And the inhibition [25]?
Its inhibition is 0%.

And the inhibition [26]?
Its inhibition is 34%.

And the inhibition [27]?
The inhibition was 0%.

And the inhibition [28]?
The inhibition was 69%.

What about the inhibition [29] of the same molecule?
Its inhibition is 9%.

And the inhibition [30]?
The inhibition was 6%.

And the inhibition [31]?
The inhibition was 25%.

And the inhibition [32]?
The inhibition was 3%.

What about the inhibition [33] of the same molecule?
The inhibition was 3%.

And the inhibition [34]?
Its inhibition is 4%.

What about the inhibition [35] of the same molecule?
Its inhibition is 4%.

And the inhibition [36]?
Its inhibition is 14%.

What about the inhibition [37] of the same molecule?
The inhibition was 3%.

What about the inhibition [38] of the same molecule?
Its inhibition is 57%.

What about the inhibition [39] of the same molecule?
The inhibition was 3%.

And the Ki [40]?
Its Ki is 0.395 µM.

What about the Ki [41] of the same molecule?
Its Ki is 0.54 µM.

And the Vd [42]?
The Vd was 4.9 L/kg.

And the concentration at 8 h [43]?
Its concentration at 8 h is 50 ng/mL.

What about the concentration at 4 h [44] of the same molecule?
Its concentration at 4 h is 329 ng/mL.

And the concentration at 8 h [45]?
The concentration at 8 h was 267 ng/mL.

What about the clearance [46] of the same molecule?
Its clearance is 55 mL/min/kg.

And the bioavailability [47]?
The bioavailability was 67%.

And the Ki [48]?
The Ki was 0.852 µM.
